Data published in patent US8957084B2, “7,8-cyclicmorphinan analogs” (Purdue Pharma L.P., priority 2012, dated 2015).

Tests used:
[1] = target: T1, μ-opioid receptor (Homo sapiens (Human), UniProt P35372); assay: μ-opioid receptor radioligand dose-displacement binding assay ([3H]-diprenorphine); details: [3H]-diprenorphine displacement
Description: Radioligand dose-displacement binding assays for μ-opioid receptors used 0.3 nM [^3H]-diprenorphine (Perkin Elmer, Shelton, Conn.), with […] membrane protein/well in a final volume of 500 μl binding buffer (10 mM MgCl2, 1 mM EDTA, 5% DMSO, 50 mM HEPES, pH 7.4). Reactions were carried out in the absence or presence of increasing concentrations of unlabeled naloxone. All reactions were conducted in 96-deep well polypropylene plates for 2 hours at room temperature. Binding reactions were terminated by rapid filtration onto 96-well Unifilter GF/C filter plates (Perkin Elmer, Shelton, Conn.), presoaked in 0.5% polyethylenimine using a 96-well tissue harvester (Perkin Elmer, Shelton, Conn.) followed by performing three filtration washes with 500 μl of ice-cold binding buffer. Filter plates were subsequently dried at 50° C. for 2-3 hours. BetaScint scintillation cocktail (Perkin Elmer, Shelton, Conn.) was added (50 μl/well), and plates were counted using a Packard Top-Count for 1 min/well. The data were analyzed using the one-site competition curve fitting functions in GraphPad PRISM™ v. 3.0 or higher (San Diego, Calif.), or an in-house function for one-site competition curve-fitting.
(§1) In TABLE 1, binding affinity of certain Compounds of the Invention to the μ- and κ-opioid receptors was determined as described above.

[2] = target: recombinant human kappa opioid receptor (κ) (Homo sapiens (Human), UniProt P41145); assay: κ-opioid receptor radioligand dose-displacement binding assay ([3H]-U69,593); details: [3H]-U69,593 displacement
Description: (§2) Membranes from HEK-293 cells, CHO or U-2 OS cells expressing the recombinant human kappa opioid receptor (κ) were prepared by lysing cells in ice cold hypotonic buffer (2.5 mM MgCl2, 50 mM HEPES, pH 7.4) (10 mL/10 cm dish) followed by homogenization with a tissue grinder/Teflon pestle. Membranes were collected by centrifugation at 30,000×g for 15 min at 4° C. and pellets were resuspended in hypotonic buffer to a final concentration of 1-3 mg/mL. Protein concentrations were determined using the BioRad protein assay reagent with bovine serum albumen as standard. Aliquots of κ receptor membranes were stored at −80° C.
Radioligand dose displacement assays used 0.4 nM [^3H]-U69,593 (GE Healthcare, Piscataway, N.J.; 40 Ci/mmole) with 15 μg membrane protein (recombinant κ opioid receptor expressed in HEK 293 cells; in-house prep) in a final volume of 200 μl binding buffer (5% DMSO, 50 mM Trizma base, pH 7.4). Non-specific binding was determined in the presence of 10 μM unlabeled naloxone or U69,593. All reactions were performed in 96-well polypropylene plates for 1 hour at a temperature of about 25° C. Binding reactions were terminated by rapid filtration onto 96-well Unifilter GF/C filter plates (Perkin Elmer, Shelton, Conn.) presoaked in 0.5% polyethylenimine (Sigma). Harvesting was performed using a 96-well tissue harvester (Perkin Elmer, Shelton, Conn.) followed by five filtration washes with 200 μl ice-cold binding buffer. Filter plates were subsequently dried at 50° C. for 1-2 hours. Fifty μl/well scintillation cocktail (Perkin Elmer, Shelton, Conn.) was added and plates were counted in a Packard Top-Count for 1 min/well.
as §1

[3] = target: T1, μ-opioid receptor; assay: μ-opioid receptor [35S]GTPγS functional assay, HEK-293 cells; type: biochemical; details: for Emax: relative to DAMGO
Description: (§3) [^35S]GTPγS functional assays were conducted using freshly thawed μ-receptor membranes prepared in-house from a cell line expressing recombinant μ opioid receptor in a HEK-293, CHO or U-2 OS cell background, or purchased from a commercial source (Perkin Elmer, Shelton, Conn.; or DiscovRx, Fremont, Calif.). Assay reactions were prepared by sequentially adding the following reagents to binding buffer (100 mM NaCl, 10 mM MgCl2, 20 mM HEPES, pH 7.4) on ice (final concentrations indicated): membrane protein (0.026 mg/mL), saponin ([…]), GDP ([…]) and [^35S]GTPγS (0.20 nM; Perkin Elmer, Shelton, Conn.). The prepared membrane solution (190 μl/well) was transferred to 96-shallow well polypropylene plates containing 10 μl of 20× concentrated stock solutions of the agonist [D-Ala^2, N-methyl-Phe^4 Gly-ol^5]-enkephalin (DAMGO) prepared in dimethyl sulfoxide (DMSO). Plates were incubated for 30 min at about 25° C. with shaking. Reactions were terminated by rapid filtration onto 96-well Unifilter GF/B filter plates (Perkin Elmer, Shelton, Conn.) using a 96-well tissue harvester (Perkin Elmer, Shelton, Conn.) followed by three filtration washes with 200 μl of ice-cold wash buffer (10 mM NaH2PO4, 10 mM Na2HPO4, pH 7.4). Filter plates were subsequently dried at 50° C. for 2-3 hours. BetaScint scintillation cocktail (Perkin Elmer, Shelton, Conn.) was added (50 μl/well) and plates were counted using a Packard Top-Count for 1 min/well. Data were analyzed using the sigmoidal dose-response curve fitting functions in GraphPad PRISM v. 3.0, or an in-house function for non-linear, sigmoidal dose-response curve-fitting.
(§4) μ GTP EC50 is the concentration of a compound providing 50% of the maximal response for the compound at a μ-opioid receptor.
(§5) μ GTP Emax (%) is the maximal effect elicited by a compound relative to the effect elicited by DAMGO, a standard μ agonist. Generally, the μ GTP Emax (%) value measures the efficacy of a compound to treat or prevent pain or other Conditions.
(§6) In TABLE 2, activity response of certain Compounds of the Invention to the μ- and κ-opioid receptors was determined as described above for functional assays using HEK-293 cells.

[4] = target: T2, κ opioid receptor (Homo sapiens (Human), UniProt P41145); assay: κ-opioid receptor [35S]GTPγS functional assay, HEK-293 cells; type: biochemical; details: for Emax: relative to U69,593
Description: as §2
(§7) Functional [^35S]GTPγS binding assays were conducted as follows. κ opioid receptor membrane solution was prepared by sequentially adding final concentrations of 0.026 μg/μl κ membrane protein (in-house), 10 μg/mL saponin, 3 μM GDP and 0.20 nM [^35S]GTPγS to binding buffer (100 mM NaCl, 10 mM MgCl2, 20 mM HEPES, pH 7.4) on ice. The prepared membrane solution (190 μl/well) was transferred to 96-shallow well polypropylene plates containing 10 μl of 20× concentrated stock solutions of agonist prepared in DMSO. Plates were incubated for 30 min at a temperature of about 25° C. with shaking. Reactions were terminated by rapid filtration onto 96-well Unifilter GF/B filter plates (Perkin Elmer, Shelton, Conn.) using a 96-well tissue harvester (Packard) and followed by three filtration washes with 200 μl ice-cold binding buffer (10 mM NaH2PO4, 10 mM Na2HPO4, pH 7.4). Filter plates were subsequently dried at 50° C. for 2-3 hours. Fifty μl/well scintillation cocktail (Perkin Elmer, Shelton, Conn.) was added and plates were counted in a Packard Top-Count for 1 min/well.
(§8) κ GTP EC50 is the concentration of a compound providing 50% of the maximal response for the compound at a κ receptor.
(§9) κ GTP Emax (%) is the maximal effect elicited by a compound relative to the effect elicited by U69,593.
as §6

[5] = target: T1, μ-opioid receptor; assay: μ-opioid receptor [35S]GTPγS functional assay, U-2 OS cells; type: biochemical; details: for Emax: GTPγS, U-2 OS cells, relative to DAMGO
Description: as §3, §4, §5
(§10) In TABLE 3, activity response of certain Compounds of the Invention to the μ- and κ-opioid receptors was determined as described above for functional assays using U-2 OS cells.

[6] = target: T2, κ opioid receptor; assay: κ-opioid receptor [35S]GTPγS functional assay, U-2 OS cells; type: biochemical; details: for Emax: GTPγS, U-2 OS cells, relative to U69,593
Description: as §2, §7, §8, §9, §10

| SMILES | Ki [1] [nM] | Ki [2] [nM] | EC50 [3] [nM] | Emax ([3]; GTPγS, HEK-293 cells) [%] | EC50 [4] [nM] | Emax ([4]; GTPγS, HEK-293 cells) [%] | EC50 [5] [nM] | Emax [5] [%] | EC50 [6] [nM] | Emax [6] [%] | EC50 ([3]; GTPγS, HEK-293 cells, read-out: μ EC50) [nM] | EC50 ([4]; GTPγS, HEK-293 cells, read-out: κ EC50) [nM] |
| --- | --- | --- | --- | --- | --- | --- | --- | --- | --- | --- | --- | --- |
| COc1ccc2c(c1)[C@]13CCN(CC4CC4)[C@H](C2)[C@@H]1C1CC1C(=O)C3 (stereo partly drawn) [Compound 1, (1bR,2R,7bS)-12-(cyclopropylmethyl)-6-methoxy-1,1b,2,3,8,9a-hexahydro-2,7b-(epiminoethano)cyclopropa[a]phenanthren-9(1aH)-one] | 112 ± 26.9 | 8.87 ± 2.73 | 53.6 ± 8.94 | 63.6 ± 3.47 | 136 ± 25.4 | 81 ± 2.27 |  |  |  |  |  |  |
| COc1ccc2c(c1)[C@]13CCN(CC4CC4)[C@H](C2)[C@@H]1C1CC1C(O)C3 (stereo partly drawn) [Compound 2, (1bR,2R,7bS)-12-(cyclopropylmethyl)-6-methoxy-1,1a,1b,2,3,8,9,9a-octahydro-2,7b-(epiminoethano)cyclopropa[a]phenanthren-9-ol] |  | 23.3 ± 6.06 | 414 ± 73 | 54.3 ± 4.67 | 1120 ± 230 | 76.7 ± 3.18 |  |  |  |  |  |  |
| C=CCOC1C[C@]23CCN(CC4CC4)[C@H](Cc4ccc(OC)cc42)C3C2CC12 (stereo partly drawn) [Compound 3, (2R,7bS)-9-(allyloxy)-12-(cyclopropylmethyl)-6-methoxy-1,1a,1b,2,3,8,9,9a-octahydro-2,7b-(epiminoethano)cyclopropa[a]phenanthrene] | 30 ± 2.76 | 3.04 ± 0.6 | 75.2 ± 9.24 | 84.3 ± 5.81 | 116 ± 27.4 | 66.7 ± 7.88 | 90.7 ± 17 | 52.7 ± 7.54 | 29.5 ± 4.5 | 105 ± 4.67 |  |  |
| C=C1C[C@@]23CCN(CC4CC4)[C@H](Cc4ccc(OC)cc42)C3C2CC12 (stereo partly drawn) [Compound 4, (2R,7bS)-12-(cyclopropylmethyl)-6-methoxy-9-methylene-1,1a,1b,2,3,8,9,9a-octahydro-2,7b-(epiminoethano)cyclopropa[a]phenanthrene] | 142 ± 10.8 | 2.19 ± 0.6 | 42.2 ± 3.59 | 113 ± 3.38 | 103 ± 36.9 | 106 ± 1.67 | 83.1 ± 7.77 | 66.7 ± 4.81 | 8.95 ± 1.02 | 102 ± 1.53 |  |  |
| COc1ccc2c(c1)[C@]13CCN(CC4CC4)[C@H](C2)[C@@H]1[C@H]1C2CCC(CC2)[C@H]1C(=O)C3 [Compound 5, (4aR,4bR,5R,10bS,12aR)-15-(cyclopropylmethyl)-9-methoxy-2,3,4,4a,5,6,11,12a-octahydro-1H-5,10b-(epiminoethano)-1,4-ethanochrysen-12(4bH)-one] | 242 ± 46 | 126 ± 21.9 |  | 33 ± 4.71 |  | 19.3 ± 0.88 |  |  |  |  | 216 ± 16.6 | 1370 ± 419 |
